Test results taken from US12063914B2, “DNA sequence that increases odorant receptor representation in the olfactory system” (Research Foundation of the City University of New York, priority 2015, dated 2024).

Legend:
human OR1A1 receptor = biological target: T1, human OR1A1 receptor (Homo sapiens, UniProt Q9P1Q5); experiment: Two-bottle behavioral avoidance task with (−)-Carvone in 5•OR1A1Cβ mice; assay type: in vivo, mouse
T1 construct: expressed in transfected cells; host or cells: olfactory sensory neurons of living 5•OR1A1Cβ hemizygous transgenic mice
T1 sequence (Q9P1Q5 1-309): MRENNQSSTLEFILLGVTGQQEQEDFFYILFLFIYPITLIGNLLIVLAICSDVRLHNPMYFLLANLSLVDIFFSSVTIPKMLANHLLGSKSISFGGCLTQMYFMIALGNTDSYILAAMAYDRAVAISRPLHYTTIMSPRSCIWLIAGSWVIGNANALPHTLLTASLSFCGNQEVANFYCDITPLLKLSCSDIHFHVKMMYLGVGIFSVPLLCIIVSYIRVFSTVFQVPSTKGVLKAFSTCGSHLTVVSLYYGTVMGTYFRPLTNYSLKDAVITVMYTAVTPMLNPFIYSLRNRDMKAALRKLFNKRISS
Description: To further evaluate the versatility of this platform, the probability of choice of expression of a human OR was increased by cloning OR1A1 into the 5×21 M71 transgenic backbone. […] Again omp levels were not changed. Clearly, the representation of some ORs must be decreased to explain this equilibrium. In the 4•M71Cα homo animals, a mere 2-log increase in M71 RNA levels leads to a detectable 0.3-log change in threshold. Therefore, without wishing to be bound to any particular theory, it is believed that further increases in the neuronal representation of specific ORs may decrease detection thresholds even more. However, a delicate balance must exist between cell number and sensitivity. This hypothesis was tested using the established two-bottle behavioral avoidance task with the 5•OR1A1Cβ mice (FIG. 3B). Conditioning of 5•OR1A1Cβ hemi animals (n=12) was performed and their WT littermates (n=7) to water containing a 10-4 dilution of (−)-Carvone, a known OR1A1 ligand. For four consecutive days, animals were given the choice between plain water and water with decreasing (10-4, 10-6, 10-7 and 10-8) dilutions of (−) Carvone (FIG. 3C). Both groups (WT and Hemi) show clear aversion towards a 10^−4 dilution of (−)-Carvone (AVG PI WT=6.17% and AVG PI hemi=10.26%), reflecting successful conditioning. Both WT (AVG PI=55.52%) and Hemi (AVG PI=47.88%) cannot detect a 10^−8 dilution of (−)-Carvone. At 10^−6 and 10^−7 however, there is a clear difference in detection between WT and Hemi (10^−6: AVG PI WT=27.65% vs. AVG PI Hemi=11.41, Student's T-test p<0.01 and 10^−7: AVG PI WT=53.88% vs. AVG PI Hemi=30.24, Student's T-test p<0.05). […] These findings indicate that expressing OR1A1 in about 40% of the OSNs translates into a 2-log difference in (−)-Carvone detection thresholds.
Olfactory behavior test: A two-bottle discrimination test was performed as previously described. Since the mice are tested for the ability to detect a single odor in drinking water at increasingly lower concentrations, this discrimination assay is also considered a detection threshold test. Mice 8 weeks old were individually housed and given food ad libitum but restricted access to saccharin-phthalic acid solution (2.1×10^−2 M sodium saccharin and 10^−3M phthalic acid pH 6.5) for 1 h twice a day for two days before the assay begins. This ensures mice would commence drinking the solution during the conditioning. On day 3 (conditioning day) mice are exposed to sodium saccharine phthalic acid (SSPA) solution with 1 dilution of odorized water for 10 minutes. Immediately after, they are injected with lithium chloride intraperitoneally (15 μl/g body weight of a 0.6 M solution) to induce the aversive malaise and lethargy state. After two hours mice are returned to their home cage and given access to two bottles of drinking water; they are given the choice between SSPA solution containing a 10^−4 dilution of the odor versus the non-odorized SSPA solution. During the following 3 days, every 24 hours, the location of the bottles is reversed and the concentration of the odorized solution is decreased to 10^−6, 10^−7 and 0.5×10^−6, respectively. Every day both bottles are weighed to determine the amount of liquid consumed. A preference index was calculated as the amount of odorized solution consumed divided by the total amount of water solution consumed for each mouse for every 24 hour test period at each odor concentration. Student's t test was performed to test statistical significance, assuming two-tailed distribution and two-sample unequal variance. Values are mean±SEM and are plotted on a LOG scale.

M71 = biological target: T2, M71 (Mus musculus, UniProt Q60893); conditions: previous ex vivo data; liquid phase; cited from earlier work
T2 construct: from ex vivo analysis of genetically defined M71 OSNs in gene-targeted mice; host or cells: dendritic knobs of M71-expressing olfactory sensory neurons from gene-targeted mice
T2 sequence (Q60893 1-309): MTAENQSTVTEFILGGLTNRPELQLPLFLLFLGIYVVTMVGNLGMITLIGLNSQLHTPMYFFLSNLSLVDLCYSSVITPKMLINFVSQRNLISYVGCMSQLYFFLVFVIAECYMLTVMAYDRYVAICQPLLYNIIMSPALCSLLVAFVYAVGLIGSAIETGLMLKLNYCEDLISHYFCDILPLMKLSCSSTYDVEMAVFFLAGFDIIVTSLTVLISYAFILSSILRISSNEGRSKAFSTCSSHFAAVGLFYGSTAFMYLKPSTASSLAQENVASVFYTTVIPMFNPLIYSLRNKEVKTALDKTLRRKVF

M71 OR = biological target: T3, M71 OR (Mus musculus, UniProt Q60893); experiment: In vivo synaptophluorin (SpH) imaging of odor-evoked glomerular activity in 4•M71Cα mice; conditions: for glomerular activity (in vivo SpH imaging): 4•M71Cα animals, vapor phase, odor dilutions 0% to 15%; for average highest (dF/F)max: hemizygous 4•M71Cα animals, ACP at 1.77 uM, 24dMACP at 0.66 uM; for average highest (dF/F)max / highest efficacy [(dF/F)max]: 4MACP at 0.69 uM; for efficacy [average (dF/F)max]: delivered at the same concentration, ˜0.70 uM; for highest efficacy [(dF/F)max]: homozygous 4•M71Cα animals, ACP at 2.66 uM, 24dMACP at 0.46 uM; for efficacy [(dF/F)max]: 0.71 uM; for response [(dF/F)max] at highest concentration delivered: 2.66 uM
T3 construct: the increase of OSNs expressing the M71 OR results in the coalescence of labeled axons; expressed in transfected cells; host or cells: olfactory sensory neurons of living transgenic mice (4•M71Cα, 5•M71Cα), made by pronuclear injection of the M71 minigene
T3 sequence (Q60893 1-309): T2 sequence (Q60893 1-309)
Description: Because the M71 OR is dorsally expressed in the olfactory bulb, any cloned OR using the M71 transgenic backbone will coalesce its axons onto dorsally located glomeruli, which makes them accessible for optical imaging. Optical imaging was therefore used to functionally characterize transgenic M71 projections in the OB. To examine their functional properties odor-evoked activity was imaged from the OBs of mice expressing the genetically encoded activity reporter SpH in all mature OSNs. Simultaneously recordings were obtained from mice that are either hemizygous or homozygous for 4•M71Cα (gene-targeted M71-GFP is out crossed) and heterozygous for SpH and identify red M71 glomeruli. Seven different M71-selective ligands were used from ex vivo analysis of genetically defined M71 OSNs in gene-targeted mice: three of these ligands produced responses by SpH imaging: Acetophenone (ACP), 4-methyl acetophenone (4MACP) and 2,4-dimethyl acetophenone (24dMACP) when delivered at different odor dilutions varying between 0% and 15%. The maximum change in fluorescence [(dF/F)max] per odor concentration was calculated for each compound over a 14 s trial period having a pre-odor (3 s), odor (4 s) and post-odor (4 s) acquisition. dF/F values for all glomeruli were calculated with a standardized 50 μm window, which is fully contained in all imaged glomeruli of both hemi and homo 4•M71Cα animals. (FIG. 2A, FIG. 2B and FIG. 2C: Each data point represents the average (dF/F). of 4-16 glomeruli imaged). […] All imaged mice are heterozygous for omp-SpH.
Olfactometry: Odors (purchased form Sigma Aldrich) were delivered using a custom built olfactometer controlled by an Arduino board with custom shields operating Teflon solenoids (Neptune Research) and connected to two Mass Flow Controllers (Alicat Scientific, Inc) to dilute the clean air (N2, max flow is 2 Lpm) and to dilute the odorized air (max flow is 300 SCCM). Nitrogen (N2) was used as the vapor carrier to avoid oxidation. Odor concentrations are expressed a % dilutions of saturated vapor and as molar saturated vapor concentration (μM s.v.), calculated using published vapor pressures at 25° Celsius (US EPA, Estimation Programs Interface Suite, v 4.0. Flow diluted odors were delivered at 2 Lpm mixed prior to the delivery site with air odorized with varying dilutions of odorant taken from the saturated headspace of pre-cleaned amber vials with white polypropylene closures and septum (J. G. Finneran) containing 99% pure odorants. To avoid contamination of the olfactometer, odorized air was never passed through the Teflon valves. Instead, odors were mixed with N2 in T-shaped mixing chambers (Neptune Research) and delivered to the animal's nose using an arduino controlled vacuum system. […] Output of the olfactometer was calibrated using the tracer odor Pinene and a photoionization detector (PID; Aurora Scientific).
In vivo SpH Imaging: Mice were anesthetized using Ketamine (100 mg/kg)/Xylazin (5 mg/kg) and maintained with Isoflurane (2.5% in 02) and immobilized using a stereotactic head holding device (Narishige, Inc.). Optical signals for SpH and mCherry were recorded using an ANDOR Neo 5.5 sCMOS camera connected to a NIKON AZ100 epifluorescence microscope (NIS Elements) with a 4× objective (numerical aperture 0.4). Excitation wavelengths of 475 nm for SpH and 575 nm for mCherry and emission of 520 nm for SpH and 635 nm for mCherry were used to obtain images of the dorsolateral bulb through thinned skull overlaying the bulb of a freely breathing animal. Each imaging trial consisted of a pre-odor (3 s), odor (4 s) and post-odor (4 s) acquisition, with a total acquisition time per trial of 14 s (including 3 s of valve switch delay). Using serial code, the arduino controlling the olfactometer was integrated in the NIS Elements software, so that the entire image acquisition sequence and flow-diluted odor delivery is controlled by the microscope software. […]

[1] = at 25° C.; cited from earlier work

C=C(C)C1CC=C(C)C(=O)C1 (single isomer, unassigned; (-)) [(−)-Carvone]
difference in detection thresholds (human OR1A1 receptor; 5•OR1A1Cβ hemi vs WT): 2 log | AVG PI (human OR1A1 receptor; 5•OR1A1Cβ hemi, 10^−4 dilution): 10.26% | AVG PI (human OR1A1 receptor; 5•OR1A1Cβ hemi, 10^−6 dilution): 11.41 | AVG PI (human OR1A1 receptor; 5•OR1A1Cβ hemi, 10^−7 dilution): 30.24 | AVG PI (human OR1A1 receptor; 5•OR1A1Cβ hemi, 10^−8 dilution): 47.88% | AVG PI (human OR1A1 receptor; WT littermates, 10^−4 dilution): 6.17% | AVG PI (human OR1A1 receptor; WT littermates, 10^−6 dilution): 27.65% | AVG PI (human OR1A1 receptor; WT littermates, 10^−7 dilution): 53.88% | AVG PI (human OR1A1 receptor; WT littermates, 10^−8 dilution): 55.52%

NCC(=O)c1ccccc1 [2 amino acetophenone]
elicit a M71 response ex vivo (M71): did

COc1ccc(C(C)=O)cc1 [4-metoxyacetophenone]
glomerular activity (in vivo SpH imaging) (M71 OR): does not show glomerular activation | saturated vapor pressure (Ps) [1]: 0.0133 mmHg | elicit a M71 response ex vivo (M71): did | ex vivo responder grade (M71): high responder

CC(=O)c1ccc(C)cc1 [4MACP, 4-methyl acetophenone]
glomerular activity (in vivo SpH imaging) (M71 OR): observed | average highest (dF/F)max (M71 OR): 4.48% | efficacy [average (dF/F)max] (M71 OR; hemizygous animals): 4.48% | highest efficacy [(dF/F)max] (M71 OR): 3.82% | average efficacy (of all concentrations and odors) (M71 OR; homozygous animals): 3.83% | saturated vapor pressure (Ps) [1]: 0.0849 mmHg | elicit a M71 response ex vivo (M71): did

CC(=O)c1ccccc1 [ACP, Acetophenone]
glomerular activity (in vivo SpH imaging) (M71 OR): observed | average highest (dF/F)max (M71 OR): 3.49% | efficacy [(dF/F)max] (M71 OR; hemizygous animals): 0.73% | efficacy [average (dF/F)max] (M71 OR; hemizygous animals): 0.73% | response [(dF/F)max] at highest concentration delivered (M71 OR; heterozygous (hemizygous) animals): 3.46% | highest efficacy [(dF/F)max] (M71 OR): 4.57% | efficacy [(dF/F)max] (M71 OR; homozygous animals): 3.00% | response [(dF/F)max] at highest concentration delivered (M71 OR; homozygous animals): 4.57% | saturated vapor pressure (Ps) [1]: 0.3260 mmHg | elicit a M71 response ex vivo (M71): did

O=Cc1ccccc1 [benzaldehyde]
elicit a M71 response ex vivo (M71): did | ex vivo responder grade (M71): low responder

CCc1occc(=O)c1O [ethylmalthol]
elicit a M71 response ex vivo (M71): did

CC(C)[C@@H]1CC[C@@H](C)CC1=O [menthone]
elicit a M71 response ex vivo (M71): did not

COC(=O)c1ccccc1 [methylbenzoate]
elicit a M71 response ex vivo (M71): did not
